# Data taken from patent US20160033533A1, “2-HYDROXYGLUTARATE AS A BIOMARKER FOR CHRONIC HYPOXIA” (MEMORIAL SLOAN KETTERING CANCER CENTER, priority 2011, published 2016).
# System: SF188 cells
# Experiment: Viability of glutamine-starved hypoxic SF188 cells (trypan blue dye exclusion)
# Type: cell-based, human
# Conditions: 0.5% O2, 48 h, glutamine-deficient medium supplemented with 7 mM dimethyl α-ketoglutarate
# Protocol: In FIG. 2(A), SF188 cells were cultured for 24 h in complete medium equilibrated with either 21% O2 (Normoxia) or 0.5% O2 (Hypoxia). Culture medium was then removed from cells and analyzed for glutamine levels which were compared to the glutamine levels in fresh medium. Data are the mean±SEM of 3 independent experiments. […] Cells were cultured in complete medium equilibrated with 0.5% O2 for 24 h, followed by an additional 48 h at 0.5% O2 in either complete medium (+Gln), glutamine-deficient medium (−Gln), or glutamine-deficient medium supplemented with 7 mM dimethyl α-ketoglutarate (−Gln+αKG). All medium was pre-conditioned in 0.5% O2. Cell viability was determined by trypan blue dye exclusion. Data are the mean and range from 2 independent experiments. FIG. 2(C) depicts a model of the pathways for cit+4 and cit+5 production from [U-^13C]glutamine (glutamine+5). […] Cells were cultured for 24 h as in (A), followed by 4 h of culture in glutamine-deficient medium supplemented with 4 mM [U-^13C]glutamine. ^13C enrichment in cellular citrate was quantitated with GC-MS. […]
# SF188 and RCC4 cells were cultured in Dulbecco's Modified Eagle's Medium (DMEM; Invitrogen 11965), 10% fetal bovine serum (FBS; Gemini Biosystems), 100 units/ml Penicillin, 100 ug/ml Streptomycin, 25 mM glucose, and 6 mM L-glutamine. […] Viability was determined by trypan blue exclusion. […]
smiles,measurement,value
COC(=O)CCC(=O)C(=O)OC [dimethyl α-ketoglutarate],cell viability upon glutamine withdrawal,rescued the defect in cell viability
